From patent US12060408B2, “Screening assays, modulators and modulation of activation of Receptor for Advanced Glycation End-products (RAGE)” (Monash University, priority 2017, dated 2024)
Entries after “also recorded” stand apart in the source; their conditions may differ.

Experiments:
[1] = test system: RAGE ligand-independent activation of RAGE by activated AT1R; test: Ang II-induced NFκB activation (p65 gene expression, SEAP reporter) in AT1R-CHO cells with RAGE constructs; format: cell-based, human
Description: Generation of Transgenic Chinese Hamster Ovary Cells
100 ng of AT1R-Rluc8 construct was transfected into CHO cells using Lipofectamine 2000 (Thermo). Stable transfectants were selected using G418. AT1R—CHO were then transiently transfected with RAGE constructs using Lipofectamine 2000 (Invitrogen) and incubated for 16 h. The Homo sapiens AGER transcript variant 1 coding sequence (NM_001136) was synthesised and cloned between the NheI and XbaI sites of pCIneo (Promega) to generate the vector pCIneo-RAGE. This plasmid was then used to generate a library of mutant AGER clones (NP_001127). Primers 1-RAGE-SP-5′ and mCherry-XhoI-NotI-3′ were used to amplify the coding sequence of mCherry from the vector pmCherry-C1. The resultant PCR product was then used as template for a second PCR using primers 2-RAGE-SP-5′ and mCherry-XhoI-NotI-3′. The PCR product generated was digested with NheI and NotI and inserted between the NheI and NotI sites of pCIneo to generate pCIneo-SP-mCherry. The sequence of the insert was confirmed by DNA sequencing (Micromon, Monash University). […]
(§1) Cellular Expression of Pro-Inflammatory Markers and Mediators by Quantitative Real-Time PCR
(§2) After 2 hours of exposure to Ang II (1 μM) or the RAGE ligand, S100A8/A9 (5 ng/ml) cells were placed in Trizol, mRNA extracted and cDNA synthesized. Changes in the gene expression of the NFκB subunit, p65 (RelA) or NFκB-activated target genes (e.g ICAM-1, VCAM-1) were estimated by quantitative real-time RT-PCR, performed using the TaqMan system based on real-time detection of accumulated fluorescence (ABI Prism 7700, Perkin-Elmer Inc, PE Biosystems, Foster City, CA, USA). Gene expression was normalized to 18S mRNA and reported as fold change compared to the level of expression in untreated control mice/cells, which were given an arbitrary value of 1.
Oligopeptides (Cherry-TAT (control), mCherry-TAT-RAGE362-404 and mCherry-S391A-TAT-RAGE362-404 were generated by transformation of the Escherichia coli strain ClearColi BL21 (DE3; Lucigen). A single transformed colony was inoculated into 50 ml 2YT medium containing 100 μg/ml ampicillin and the culture was grown overnight at 37° C. with shaking at 250 rev/min. 10 ml overnight culture was used to inoculate 1 litre 2YT medium containing 100 μg/ml ampicillin and the culture was grown at 37° C. with shaking at 250 rev/min. When the cultures reached an OD600 of 0.8, the temperature was shifted to 15° C. for 30 min after which protein expression was induced by the addition of 1 mM isopropyl β-D-1-thiogalacto-pyranoside (IPTG). Following the addition of IPTG the cultures were grown for ˜16 h at 15° C. with shaking at 250 rev/min. Cells were harvested by centrifugation (3500 g, 4° C., 20 min) and resuspended in ice-cold lysis buffer (50 mM Tris pH 7.4, 300 mM NaCl, 10 mM imidazole and 5 mM beta-mercaptoethanol). The resuspended cells were sonicated and insoluble material was pelleted by centrifugation (13 000 g, 4° C., 30 min). The supernatant was filtered (0.2 μm) and applied onto a gravity-flow column with a 1 ml Ni-NTA Agarose resin bed volume (Qiagen) pre-equilibrated with lysis buffer. After the supernatant was passed over the resin, the column was washed with 100 ml of wash buffer (20 mM imidazole, 50 mM Tris pH 7.4, 150 mM NaCl, 5 mM beta-mercaptoethanol). His-tagged TAT-mCherry and TAT-mCherry-RAGE peptides were eluted from the resin using elution buffer (250 mM imidazole, 50 mM Tris pH 7.4, 150 mM NaCl, 5 mM beta-mercaptoethanol). […]

[2] = test system: primary murine aortic endothelial cells (PMAEC); test: Expression of pro-inflammatory markers by real-time RT-PCR in primary murine aortic endothelial cells; format: cell-based, mouse
Description: Primary aortic endothelial cells (PMAEC) were isolated from the aortae of (wild-type) C57bl6 mice and AGER KO mice and cultured in Dulbecco's modified Eagle's medium (DMEM)/F12 endothelial cell growth supplement (ECGS) supplemented media. Chinese Hamster Ovary (CHO) cells were cultured using F12 media (10% FCS with 2 mM glutamine). Human microvascular endothelial cells (HMEC) were cultured in MCDB 131 medium (10% FCS with 10 mM glutamine, EGF and hydrocortisone).
as §1, §2
Selective Silencing of Gene Expression Using siRNA
PMAEC from C57b/6 mice were also transfected with siRNA to RAGE (2 nM) Ambion, ID:s62119), p65 (RelA) (10 nM; Ambion, ID:s72857), MyD88 (10 nM; Ambion. ID:s201719), PKCζ (10 nM; Ambion, ID:s71716), IQGAP-1, Ambion, ID:s78119), Diaph1 (10 nM; sense5′-[…], antisense 3′-[…]; Invitrogen) or scrambled control #1 (2 nM or 10 nM; Ambion) using Lipofectamine RNAiMAX (Invitrogen) as per manufacturer's instructions. Cells were allowed to recover in media containing 10% FBS for 16 hours prior to treatment with 1 μM Ang II or 5 ng/ml of the RAGE ligand, S100A8/A9, as a signalling control.

[3] = test system: apoE KO mice; test: Induction of oxidative stress (plasma 8-OHdG ELISA, aortic NOX-1/NOX-4 RT-PCR); format: in vivo, mouse; settings: four-week infusion 1 μg/kg/min
Source text: Induction of Oxidative Stress
The induction of oxidative stress in each animal model was estimated by the measurement of plasma levels of 8-hydroxydeoxyguanosine using the OxiSelect Oxidative DNA Damage ELISA Kit (8-OHdG Quantitation; Cell Biolabs, Inc), and performed as per manufacturer's instructions. In addition, gene expression of the superoxide-producing NADPH oxidase subunits, NOX-1 and NOX-4 were quantitated in the aortae of mice using real time RT-PCR, as detailed above.

[4] = Systolic BP measurement by tail-cuff plethysmography; format: in vivo, mouse; settings: four-week infusion 1 μg/kg/min, both apoE KO and AGER/apoE DKO mice
Description: Systolic blood pressure was measured by tail-cuff plethysmography in conscious, pre-warmed mice using a computerized, non-invasive, tail-cuff system (Kent Scientific, USA). Animals were habituated to the device before measuring the pressures to ensure accurate measurements.

Row | Substance | inhibition of Ang II-dependent p65 induction after pre-treatment with wild-type RAGE362-404 peptide ([1]; AT1R-CHO cells) | inhibition of Ang II-dependent p65 induction with subsequent wild-type RAGE362-404 in thousand-fold excess ([1]; AT1R-CHO cells) | inhibition of Ang II-induced p65 and PCNA gene expression in the absence of targets for RAGE phosphorylation ([1]; AT1R-CHO cells transfected with full length S391Q-cRAGE) | ability of the RAGE construct to be activated and mediate pro-inflammatory signalling in response to Ang II ([1]; construct expressed in AT1R-CHO cells, no wild-type RAGE) | inhibition of RAGE ligand-independent activation of wild-type RAGE by activated AT1R ([1]; summary statement, cell system not given) | inhibition of VCAM-1 induction in response to Ang II or S100A8/A9 ([2]; PMAEC endogenously replete in RAGE) | activation of p65-NFκB ([1]; AT1R-CHO cells expressing full-length human RAGE, 1 μM) | expression of p65-NFκB / NFκB activation ([1]; AT1R-CHO cells without RAGE, 1 μM) | oxidative stress ([3]; AGER/apoE DKO mice) | markers of oxidative stress ([3]; apoE KO mice) | induction of pro-inflammatory genes ([2]; PMAEC from AGER KO mice) | markers of canonical or non-canonical activation of NFκB ([2]; PMAEC from AGER KO mice) | canonical and non-canonical signalling downstream of NFκB (CXCL2, CXCL12) ([2]; PMAEC from C57bl6 mice) | expression of pro-inflammatory genes (ICAM-1, VCAM-1, TNFα, MCP-1) ([2]; PMAEC from C57bl6 mice, Ang II 1 μM or S100A8/A9) | NFκB-dependent induction of VCAM-1 gene expression ([2]; PMAEC with AGER expression silenced using siRNA) | systolic blood pressure [4]
1 | L362WQRRQRRGEERKAPENQEEEEERAELNQAEEPEAGESSTGGP404 (LWQRRQRRGEERKAPENQEEEEERAELNQAEEPEAGESSTGGP; listed as Homo sapiens) [S391A-RAGE362-404, S391A mutant RAGE cytosolic tail; non-functional substitute for RAGE] | not reversed | observed | maintained; also recorded: inhibitory effects | not activated | inhibits | inhibitory effect |  |  |  |  |  |  |  |  |  | 
2 | angiotensin II (DRVYIHPF) [Ang II, cognate ligand of AT1R] |  |  |  |  |  |  | able to induce activation | unable to induce | preventing | increases | does not lead to the induction | does not lead to | induction of both canonical and non-canonical signalling | increased expression | preventing | increased to a similar extent
